Reference: patent publication US12606552B2, “Bifunctional compound, preparation method therefor, and use thereof” (SUZHOU KINTOR PHARMACEUTICALS, INC., priority 2020, dated 2026)

Biological target: T1, AR (Homo sapiens, UniProt P10275, T878A)
T1 sequence (P10275 1-920 T878A): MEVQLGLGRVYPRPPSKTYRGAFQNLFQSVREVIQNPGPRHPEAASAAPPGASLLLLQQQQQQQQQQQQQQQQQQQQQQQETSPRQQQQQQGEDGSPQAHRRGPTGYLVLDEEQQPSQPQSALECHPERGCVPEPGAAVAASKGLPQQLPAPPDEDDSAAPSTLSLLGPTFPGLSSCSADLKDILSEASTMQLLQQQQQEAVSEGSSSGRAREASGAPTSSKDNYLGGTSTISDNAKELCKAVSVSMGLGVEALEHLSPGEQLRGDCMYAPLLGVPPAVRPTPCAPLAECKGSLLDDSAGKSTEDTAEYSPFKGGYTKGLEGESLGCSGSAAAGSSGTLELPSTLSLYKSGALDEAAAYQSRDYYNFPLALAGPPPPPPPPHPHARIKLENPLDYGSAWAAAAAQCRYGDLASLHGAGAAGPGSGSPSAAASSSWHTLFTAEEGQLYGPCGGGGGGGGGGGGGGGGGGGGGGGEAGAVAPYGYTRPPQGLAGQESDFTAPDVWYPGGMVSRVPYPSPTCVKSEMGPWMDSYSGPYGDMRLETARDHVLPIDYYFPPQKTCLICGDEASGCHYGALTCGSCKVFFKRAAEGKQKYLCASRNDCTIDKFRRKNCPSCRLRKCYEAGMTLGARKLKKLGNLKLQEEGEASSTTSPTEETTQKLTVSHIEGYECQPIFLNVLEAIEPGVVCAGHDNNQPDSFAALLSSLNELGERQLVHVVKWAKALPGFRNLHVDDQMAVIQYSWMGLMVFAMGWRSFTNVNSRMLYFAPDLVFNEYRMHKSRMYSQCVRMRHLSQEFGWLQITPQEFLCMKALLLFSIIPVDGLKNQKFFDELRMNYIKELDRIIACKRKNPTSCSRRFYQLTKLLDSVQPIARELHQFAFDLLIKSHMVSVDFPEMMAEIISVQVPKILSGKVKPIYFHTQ
Experiment: Effects of compounds on AR expression in LNCaP cells (ELISA, DC50)
Type: cell-based
Parameters: Measurement of the Effects of Drugs on the Expression of AR in Cells by ELISA Method; endogenous in cells; host or cells: LNCaP
Settings: 24 hours of drug treatment, AR by ELISA
Procedure: Activity Assay Example 1: Effects of Compounds on AR Expression in LNCaP Cells
1. Cell Line and Cell Culture
Human prostate cancer cells LNCaP (Shanghai Chinese Academy of Sciences Cell Bank). LNCaP was cultured in 1640 medium containing 10% fetal bovine serum. The cells grow in clusters, with weak adhesion to the bottom of the culture flask, slow proliferation, with a multiplication time of 72 h. The cells are closely adhered to each other and need to be digested with 0.05% trypsin containing 0.025% EDTA. The cells were passaged every 3 days. The cells were cultured at 37° C. and 5% CO2 in a humidified incubator
2. Cell plating: The supernatant was discarded, and the Lncap cells in the logarithmic growth phase were taken, washed with PBS once, and added with appropriate 0.05% trypsin digestion solution to be fully digested into single cell suspension, and centrifuged, resuspended and counted to make the number of cells about 15,000 per well, then inoculated in a 96-well plate, placed at 37° C., 5% CO2 and cultured overnight for 24 h.
3. Preparation and Addition of Compound Solutions
About 2 mg of each compound was weighed and dissolved in DMSO to make the stock solution with a concentration of 10 mmol/L. Dilution process (final concentration dilution: 2, 0.667, 0.222, 0.074, 0.0245, 0.008, 0.003, 0.001, 0.0003, 0.0001 μmol/L): 10 centrifuge tubes with a volume of 1.5 mL were taken and numbered 1, 2, 3, 4, 5, 6, 7, 8, 9, and 10, 80 μL DMSO was added to tube No. 1, and 60 μL DMSO was added to tubes No. 2 to No. 10, 20 μL of the stock solution was pipetted to tube No. 1 and mixed well; 30 μL was pipetted from tube No. 1 into tube No. 2 and mixed well. 30 μL was pipetted from tube No. 2 into tube No. 3 and mixed well, and so forth, to obtain samples No. 4-10, and to obtain working solutions of compounds of different concentrations respectively. 2 μL was pipetted from the above-mentioned tubes No. 1-10 into each corresponding sterile deep-well plates, added with 198 μL of culture medium, and mixed well. 11 ul was added to each well of the 96-well cell plate cultured overnight to obtain the corresponding desired concentrations (2, 0.667, 0.222, 0.074, 0.0245, 0.008, 0.003, 0.001, 0.0003, 0.0001 μmol/L).
4. Measurement of the Effects of Drugs on the Expression of AR in Cells by ELISA Method
After 24 hours of drug treatment, the supernatant was removed, and 200 μL of PBS was added to wash cells, and then the supernatant was removed, and 100 μL of cell lysate was added to lyse cells on ice for 20 min, then the cell lysate was centrifuged at 4000 rpm for 20 min at 4° C. and the supernatant was taken for later use. The measurement steps of the supernatant were according to the ELISA kit instructions:
4.1 The slats required for the test were taken out from the sealed bag that has been equilibrated to room temperature. Please put the unused slats and desiccant back into the aluminum foil bag and compress the self-sealing strip, seal the bag, and store at 4° C.
4.2 Standards and sample diluents were added to blank wells, and different concentrations of standards (10 ul/well) and sample diluents (90 ul/well) were added to the remaining corresponding wells, and the reaction wells were sealed with sealing tape, and refrigerated at 4° C. overnight.
4.3 Primary antibody was diluted with dilution buffer to the corresponding concentration and added to each well in 100 ul/well. The reaction wells were sealed with sealing tape and incubated at 37° C. for 60 min.
4.4 Secondary antibody was diluted with dilution buffer to the corresponding concentration and added to each well in 100 ul/well. The reaction wells were sealed with sealing tape and incubated at 37° C. for 30 min.
4.5 The reaction wells were added with 100 ul/well of substrate (TMB) and incubated at room temperature for 30 min.
4.6 The reaction wells were added with 100 ul/well of stop solution, mixed well and then the OD450 value was measured with a microplate reader. […]

| SMILES | DC50 [nM] |
| --- | --- |
| Cc1ncsc1-c1ccc(CNC(=O)[C@@H]2C[C@@H](O)CN2C(=O)[C@@H](NC(=O)CCN2CCC(Oc3ccc(-c4ccc(N5C(=S)N(c6ccc(C#N)c(C(F)(F)F)c6F)C(=O)C5(C)C)cn4)cc3)CC2)C(C)(C)C)cc1 [Compound A65] | 32.4 |
| Cc1ncsc1-c1ccc(CNC(=O)[C@@H]2C[C@@H](O)CN2C(=O)[C@@H](NC(=O)COCCCC(=O)N(Cc2ccccc2)c2ccc(-c3ccc(N4C(=S)N(c5ccc(C#N)c(C(F)(F)F)c5F)C(=O)C4(C)C)cn3)cc2)C(C)(C)C)cc1 [Compound A67] | 248 |
| Cc1ncsc1-c1ccc(CNC(=O)[C@@H]2C[C@@H](O)CN2C(=O)[C@@H](NC(=O)COCCCCNc2ccc(-c3ccc(N4C(=S)N(c5ccc(C#N)c(C(F)(F)F)c5F)C(=O)C4(C)C)cn3)cc2)C(C)(C)C)cc1 [Compound A68] | > 2000 |
| Cc1ncsc1-c1ccc(CNC(=O)[C@@H]2C[C@@H](O)CN2C(=O)[C@@H](NC(=O)CN2CCN(CCc3ccc(-c4ccc(N5C(=S)N(c6ccc(C#N)c(C(F)(F)F)c6F)C(=O)C5(C)C)cn4)cc3)CC2)C(C)(C)C)cc1 [Compound A69] | 39.4 |
| Cc1ncsc1-c1ccc(CNC(=O)[C@@H]2C[C@@H](O)CN2C(=O)[C@@H](NC(=O)COCCCCOc2ccc(-c3ncc(N4C(=S)N(c5ccc(C#N)c(C(F)(F)F)c5F)C(=O)C4(C)C)cc3C(F)(F)F)cc2C#N)C(C)(C)C)cc1 [Compound A75] | 89.4 |
| Cc1ncsc1-c1ccc(CNC(=O)[C@@H]2C[C@@H](O)CN2C(=O)[C@@H](NC(=O)COCCOCCOc2ccc(-c3ccc(N4C(=S)N(c5ccc(C#N)c(C(F)(F)F)c5F)C(=O)C4(C)C)cn3)cc2)C(C)(C)C)cc1 [Compound A76] | 40 |
| Cc1ncsc1-c1ccc(CNC(=O)[C@@H]2C[C@@H](O)CN2C(=O)[C@@H](NC(=O)CCn2cc(COc3ccc(-c4ccc(N5C(=S)N(c6ccc(C#N)c(C(F)(F)F)c6F)C(=O)C5(C)C)cn4)cc3)nn2)C(C)(C)C)cc1 [Compound A80] | 116 |
| Cc1ncsc1-c1ccc(CNC(=O)[C@@H]2C[C@@H](O)CN2C(=O)[C@@H](NC(=O)CCCn2cc(COc3ccc(-c4ccc(N5C(=S)N(c6ccc(C#N)c(C(F)(F)F)c6F)C(=O)C5(C)C)cn4)cc3)nn2)C(C)(C)C)cc1 [Compound A81] | 63.3 |
| Cc1ncsc1-c1ccc(CNC(=O)[C@@H]2C[C@@H](O)CN2C(=O)[C@@H](NC(=O)CN2CCN(Cc3ccc(-c4ccc(N5C(=S)N(c6ccc(C#N)c(C(F)(F)F)c6F)C(=O)C5(C)C)cn4)cc3)CC2)C(C)(C)C)cc1 [Compound A86] | 69.3 |
| Cc1ncsc1-c1ccc(CNC(=O)[C@@H]2C[C@@H](O)CN2C(=O)[C@@H](NC(=O)COCCOc2c(F)cc(-c3ncc(N4C(=S)N(c5ccc(C#N)c(C(F)(F)F)c5F)C(=O)C4(C)C)cc3F)cc2F)C(C)(C)C)cc1 [Compound A87] | 54.6 |
| Cc1ncsc1-c1ccc(CNC(=O)[C@@H]2C[C@@H](O)CN2C(=O)[C@@H](NC(=O)COCCOc2ccc(-c3ncc(N4C(=S)N(c5ccc(C#N)c(C(F)(F)F)c5F)C(=O)C4(C)C)cc3C(F)(F)F)cc2)C(C)(C)C)cc1 [Compound A92] | 99.6 |
| Cc1ncsc1-c1ccc(CNC(=O)[C@@H]2C[C@@H](O)CN2C(=O)[C@@H](NC(=O)CCCn2cc(COc3ccc(-c4ncc(N5C(=S)N(c6ccc(C#N)c(C(F)(F)F)c6F)C(=O)C5(C)C)cc4F)cc3F)nn2)C(C)(C)C)cc1 [Compound A96] | 54.9 |
| Cc1ncsc1-c1ccc(CNC(=O)[C@@H]2C[C@@H](O)CN2C(=O)[C@@H](NC(=O)COCCCCn2cc(-c3ccc(N4C(=S)N(c5ccc(C#N)c(C(F)(F)F)c5F)C(=O)C4(C)C)cn3)ccc2=O)C(C)(C)C)cc1 [Compound A98] | 281 |
| Cc1ncsc1-c1ccc(CNC(=O)[C@@H]2C[C@@H](O)CN2C(=O)[C@@H](NC(=O)CCN2CCC(Oc3ccc(-c4ncc(N5C(=S)N(c6ccc(C#N)c(C(F)(F)F)c6F)C(=O)C5(C)C)cc4F)cc3F)CC2)C(C)(C)C)cc1 [Compound A104] | 241 |
| Cc1ncsc1-c1ccc(CNC(=O)[C@@H]2C[C@@H](O)CN2C(=O)[C@@H](NC(=O)COCCCCN2CCN(c3ccc(N4C(=S)N(c5ccc(C#N)c(C(F)(F)F)c5F)C(=O)C4(C)C)cn3)CC2)C(C)(C)C)cc1 [Compound A106] | 402 |
| Cc1ncsc1-c1ccc(CNC(=O)[C@@H]2C[C@@H](O)CN2C(=O)[C@@H](OC(=O)COCCCCOc2ccc(-c3ncc(N4C(=S)N(c5ccc(C#N)c(C(F)(F)F)c5F)C(=O)C4(C)C)cc3F)cc2F)C(C)(C)C)cc1 [Compound A107] | 107 |
| Cc1ncsc1-c1ccc([C@H](C)NC(=O)[C@@H]2C[C@@H](O)CN2C(=O)[C@@H](NC(=O)COCCCCOc2ccc(-c3ccc(N4C(=S)N(c5ccc(C#N)c(C(F)(F)F)c5F)C(=O)C4(C)C)cn3)cc2C(F)(F)F)C(C)(C)C)cc1 [Compound A113] | 193 |
| CC(C)(C)[C@H](NC(=O)COCCCCOc1c(F)cc(-c2ncc(N3C(=S)N(c4ccc(C#N)c(C(F)(F)F)c4F)C(=O)C3(C)C)cc2C(F)(F)F)cc1F)C(=O)N1C[C@H](O)C[C@H]1C(=O)NCc1ccccc1 [Compound A114] | 79.3 |
| CC(C)(C)[C@H](NC(=O)COCCCCOc1c(F)cc(-c2ncc(N3C(=S)N(c4ccc(C#N)c(C(F)(F)F)c4F)C(=O)C3(C)C)cc2C(F)(F)F)cc1F)C(=O)N1C[C@H](O)C[C@H]1C(=O)NCc1ccc(C(N)=O)cc1 [Compound A116] | 370 |
| CC(C)(C)[C@H](NC(=O)COCCCCCOc1ccc(-c2ncc(N3C(=S)N(c4ccc(C#N)c(C(F)(F)F)c4F)C(=O)C3(C)C)cc2F)cc1F)C(=O)N1C[C@H](O)C[C@H]1C(=O)NCc1ccc(C(N)=O)cc1 [Compound A117] | 111 |
| CC(C)(C)[C@H](NC(=O)COCCCCCOc1ccc(-c2ncc(N3C(=S)N(c4ccc(C#N)c(C(F)(F)F)c4F)C(=O)C3(C)C)cc2F)cc1F)C(=O)N1C[C@H](O)C[C@H]1C(=O)NCc1ccccc1 [Compound A118] | > 2000 |
| CC(C)(C)[C@H](NC(=O)COCCCCOc1ccc(-c2ncc(N3C(=S)N(c4ccc(C#N)c(C(F)(F)F)c4F)C(=O)C3(C)C)cc2F)cc1F)C(=O)N1C[C@H](O)C[C@H]1C(=O)NCc1ccc(C(N)=O)cc1 [Compound A119] | 7.2 |
